Experimental data as given in patent publication US20100297688A1, “METHOD FOR DIAGNOSING OR PREDICTING SHORT STATURE IN HUMANS” (priority 2009, published 2010).
No end group written: not given here.

Legend:
[1] = adult dogs, after treatment with GH for 3 months, histomorphometry; cited from earlier work
GH secretion = assay: GHRH test (GH stimulation test) in children with short stature; assay type: in vivo, human; settings: GHRH 1 μg/kg IV at 0 min; GH peaks induced consistently in the first 30 min
Experimental: Patients. A GHRH test was conducted after overnight fasting, modified with samples that were obtained at 3, 5, and 10 minutes in addition to routine protocol collection of samples at 30 minutes, 60 minutes, 90 minutes and 120 minutes following GHRH injection (GHRH1-29: GEREF, SERONO, Italy; 1 μg/kg IV at 0 min). A total of 19 children (8.6±3.2, range from 2.5 yrs to 14 yrs, 5 girls) who suffered SS (short stature) (Ht−2.5±0.6 SDS) were administered GHRH 1 μg/kg IV at 0 min and blood samples were obtained at 0, 3, 5, 10, 30, 60, 90 and 120 min. GH was determined in all samples.
Blood sample processing. GH and IGF-1 were analyzed at Esoterix (Texas, U.S.). IGF1 was measured by radioimmunoassay after acid-ethanol extraction and with IGF2 blocking. A 100 uL of sample was initially used for the procedure. Growth hormone was tested by ICMA, requires min amount of 0.2 ml of serum, preparation include 1 mL serum, separate within one hour that was shipped frozen in plastic vial (http://www.esoterix.com/prodserv/test_menu!)
AUC measurements for GH were calculated according trapezoid rule (Tai MM 1994 A mathematical model for the determination of total area under glucose tolerance and other metabolic curves. Diabetes Care 17:p 152-4).

| Substance | increase in cortical bone mass [1] [%] | time of GH peak after GHRH (GH secretion) [min] |
| --- | --- | --- |
| Growth hormone [GH] | 2 |  |
| Growth hormone releasing hormone (YADAIFTNSYRKVLGQLSARKLLQDIMSR; ends and bridges not checked; UniProt P01286 32-60, looked up, fragment) [GHRH, GHRH1-29: GEREF, SERONO, Italy; stimulator of GH secretion] |  | ≤ 30 |
